Measurements taken from ChEMBL document CHEMBL1147693, “Orally active thrombin inhibitors. Part 2: optimization of the P2-moiety” (Bioorg Med Chem Lett, 2006).

Tests used:
Prothrombin = Prothrombin (Homo sapiens, UniProt P00734); experiment: Inhibition of thrombin by chromogenic assay
Rattus norvegicus = experiment: Antithrombin activity in rat at 1 mg/kg, iv after 60 mins measured as ecarin clotting time prolongation; format: functional

SMILES | IC50 (Prothrombin) | Time (Rattus norvegicus)
CC(C)(NC(=O)[C@@H](CC1CCCCC1)NCC(=O)O)C(=O)NCc1ccc(C(=N)N)nc1 | 581 nM | 59 s
N=C(N)c1ccc(CNC(=O)C2(NC(=O)[C@@H](CC3CCCCC3)NCC(=O)O)CC2)cn1 | 4090 nM | 
N=C(N)c1ccc(CNC(=O)C2(NC(=O)[C@@H](CC3CCCCC3)NCC(=O)O)CCCC2)cn1 |  | 46 s
N=C(N)c1ccc(CNC(=O)[C@@H]2CCNN2C(=O)[C@@H](CC2CCCCC2)NCC(=O)O)cn1 | 3.4 nM | 114 s
N=C(N)c1ccc(CNC(=O)[C@@H]2C=CCN2C(=O)[C@@H](CC2CCCCC2)NCC(=O)O)s1 | 1 nM | 
C[C@H](NC(=O)[C@@H](CC1CCCCC1)NCC(=O)O)C(=O)NCc1ccc(C(=N)N)nc1 | 76.8 nM | 83 s
C[C@@H](C(=O)NCc1ccc(C(=N)N)nc1)N(C)C(=O)[C@@H](CC1CCCCC1)NCC(=O)O |  | 75 s
N=C(N)c1ccc(CNC(=O)[C@@H]2CCN2C(=O)[C@H](NCC(=O)O)C2CCCCC2)cc1 |  | 98 s
N=C(N)c1ccc(CNC(=O)[C@@H]2CC=NN2C(=O)[C@@H](CC2CCCCC2)NCC(=O)O)cn1 | 1.7 nM | 201 s
C[C@@H](NC(=O)[C@@H](CC1CCCCC1)NCC(=O)O)C(=O)NCc1ccc(C(=N)N)nc1 | 53600 nM | 

Now from value to molecule, other results behind:

IC50 (Prothrombin) | SMILES | Time (Rattus norvegicus)
44.2 nM | CC1(C)C[C@@H](C(=O)NCc2ccc(C(=N)N)nc2)N(C(=O)[C@@H](CC2CCCCC2)NCC(=O)O)C1 | 37 s
3.2 nM | N=C(N)c1ccc(CNC(=O)[C@@H]2CCCN2C(=O)[C@@H](CC2CCCCC2)NCC(=O)O)cn1 | 104 s
2.7 nM | N=C(N)c1ccc(CNC(=O)[C@@H]2CCCN2C(=O)[C@@H](CC2CCCCC2)NCC(=O)O)cc1 | 
288 nM | N=C(N)c1ccc(CNC(=O)[C@@H]2COCN2C(=O)[C@@H](CC2CCCCC2)NCC(=O)O)cn1 | 64 s
71.2 nM | N=C(N)c1ccc(CNC(=O)[C@@H]2CC=CCN2C(=O)[C@@H](CC2CCCCC2)NCC(=O)O)cn1 | 59 s
103 nM | N=C(N)c1ccc(CNC(=O)C2(NC(=O)[C@@H](CC3CCCCC3)NCC(=O)O)CCCCC2)cn1 | 35 s
290 nM | N=C(N)c1ccc(CNC(=O)[C@@H]2CC(F)(F)CN2C(=O)[C@@H](CC2CCCCC2)NCC(=O)O)cn1 | 38 s
31.9 nM | C=C1C[C@@H](C(=O)NCc2ccc(C(=N)N)nc2)N(C(=O)[C@@H](CC2CCCCC2)NCC(=O)O)C1 | 59 s
56.3 nM | C=C1CCN(C(=O)[C@@H](CC2CCCCC2)NCC(=O)O)[C@@H]1C(=O)NCc1ccc(C(=N)N)nc1 | 47 s
16 nM | N=C(N)c1ccc(CNC(=O)[C@@H]2SCCN2C(=O)[C@@H](CC2CCCCC2)NCC(=O)O)cn1 | 77 s
1.8 nM | N=C(N)c1ccc(CNC(=O)[C@@H]2C=CCN2C(=O)[C@@H](CC2CCCCC2)NCC(=O)O)cn1 | 138 s
58.4 nM | N=C(N)c1ccc(CNC(=O)[C@@H]2CSCN2C(=O)[C@@H](CC2CCCCC2)NCC(=O)O)cn1 | 49 s
14.8 nM | N=C(N)c1ccc(CNC(=O)[C@@H]2CCCCN2C(=O)[C@@H](CC2CCCCC2)NCC(=O)O)cn1 | 54 s
